Entries after “also recorded” stand apart in the source; their conditions may differ.
Assays:
22Rv1 cells = test: Western blot analysis of apoptosis in 22Rv1 cells; type: cell-based; details: phenol red-free medium+10% CS-FBS, 24 h
Source text: A) The 22Rv1 cells express substantial level of AR-Vs, which include AR-V7 and other AR variants lacking the LBD. The ARs were probed by N-terminal directed AR antibody (N20, Santa Cruz); B) The 22Rv1 cells were androgen-starved (in phenol red-free medium+10% CS-FBS) for 3 days to ensure the full-length AR expressed in 22Rv1 are not activated. The 22Rv1 cells were subsequently co-transfected with PSA-luc and pRL-TK plasmids. […] Cells in phenol red-free medium+10% CS-FBS were exposed to DMSO or compounds for 24 h and harvested for Western blot analysis.

DU145 cells = test: MTT assay (cytotoxicity), DU145 cells; type: cell-based; details: DU145 cells, 72 h, Table 4.2
Outline: (§1)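 Following overnight attachment at 6-7×10^3 cells per well, cultures receive compound for 72 h in serum-containing (10% FBS) RPMI 1640. MTT then quantifies surviving cells, with each experiment done in triplicate and repeated at least twice.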

LNCaP cells = test: Western blot analysis of apoptosis in LNCaP cells; type: cell-based; details: whole medium, 24 h
Procedure: Experiments were in duplicate and repeated three times. […] LNCaP cells in whole medium were exposed to DMSO vehicle control or compounds for 24 h.

VP16-AR(507-919) = VP16-AR(507-919) (NTD-deleted) PSA-luc reporter assay; details: 10 nM DHT, 24 h; PC3 or HEK293 cells
[1] = biological target: T1, H874Y mutant of full-length AR in 22Rv1 cells (Homo sapiens, UniProt P10275, H875Y); test: PSA-luc reporter assay in 22Rv1 cells, DHT-induced (endogenous H874Y full-length AR); type: cell-based
T1 sequence (P10275 1-920 H875Y): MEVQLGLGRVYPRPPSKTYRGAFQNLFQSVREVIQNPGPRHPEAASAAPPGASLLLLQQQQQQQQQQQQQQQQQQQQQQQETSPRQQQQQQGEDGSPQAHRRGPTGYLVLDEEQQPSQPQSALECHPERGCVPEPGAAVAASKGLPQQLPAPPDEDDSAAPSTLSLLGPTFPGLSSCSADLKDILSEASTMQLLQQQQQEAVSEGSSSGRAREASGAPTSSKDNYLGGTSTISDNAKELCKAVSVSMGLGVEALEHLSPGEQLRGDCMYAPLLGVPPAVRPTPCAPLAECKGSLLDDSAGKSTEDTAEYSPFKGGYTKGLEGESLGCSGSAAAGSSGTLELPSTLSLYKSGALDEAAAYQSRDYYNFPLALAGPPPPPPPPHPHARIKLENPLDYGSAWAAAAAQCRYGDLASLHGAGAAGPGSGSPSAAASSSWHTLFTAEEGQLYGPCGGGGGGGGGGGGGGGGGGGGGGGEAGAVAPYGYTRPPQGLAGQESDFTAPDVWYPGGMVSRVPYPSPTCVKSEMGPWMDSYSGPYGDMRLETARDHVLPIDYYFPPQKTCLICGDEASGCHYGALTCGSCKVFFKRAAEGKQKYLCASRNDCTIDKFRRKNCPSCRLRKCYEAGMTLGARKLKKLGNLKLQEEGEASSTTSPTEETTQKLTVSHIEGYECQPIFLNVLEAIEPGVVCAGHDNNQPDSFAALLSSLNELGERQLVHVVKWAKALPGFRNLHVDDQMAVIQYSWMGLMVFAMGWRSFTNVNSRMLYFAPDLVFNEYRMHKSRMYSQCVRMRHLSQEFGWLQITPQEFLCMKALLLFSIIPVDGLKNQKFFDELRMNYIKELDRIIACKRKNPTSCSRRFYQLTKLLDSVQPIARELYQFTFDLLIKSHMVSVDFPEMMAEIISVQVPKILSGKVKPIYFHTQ

full-length IRF3 = biological target: T2, full-length IRF3 (Homo sapiens, UniProt Q14653); test: Full-length IRF3 ISRE-luc reporter assay; type: cell-based; details: PC3 cells, 24 h
T2 construct: co-transfected with full-length IRF3 or IRF3DBD-AR(1-547) expressing plasmids; expressed in transfected cells
T2 sequence (Q14653 1-427): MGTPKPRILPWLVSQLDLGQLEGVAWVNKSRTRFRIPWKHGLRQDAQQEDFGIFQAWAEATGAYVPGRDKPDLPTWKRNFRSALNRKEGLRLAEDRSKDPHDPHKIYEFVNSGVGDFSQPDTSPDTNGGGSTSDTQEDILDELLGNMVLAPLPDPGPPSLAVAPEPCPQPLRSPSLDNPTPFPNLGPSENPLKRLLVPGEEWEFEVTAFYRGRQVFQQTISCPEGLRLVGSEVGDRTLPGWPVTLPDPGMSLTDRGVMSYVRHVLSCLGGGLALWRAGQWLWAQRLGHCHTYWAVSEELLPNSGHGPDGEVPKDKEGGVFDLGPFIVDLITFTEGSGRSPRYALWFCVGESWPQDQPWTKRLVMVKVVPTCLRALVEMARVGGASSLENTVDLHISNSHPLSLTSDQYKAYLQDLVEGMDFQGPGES
Source text: For all of the others, cells were co-transfected with full-length IRF3 or IRF3DBD-AR(1-547) expressing plasmids and with the ISRE-luc reporter and pRL-TK plasmids. […] As IRF3DBD-AR(1-547) contains the DBD of IRF3, ISRE-luc reporter instead of the PSA-luc reporter was used in our assays.
HEK293 cells were co-transfected with IRF3DBD(1-133) or IRF3DBD-AR(1-547) or IRF3DBD-AR(181-547) or full-length IRF3 expressing plasmids and with the ISRE-luc reporter and the Renilla luciferase pRL-TK plasmids.
Here, IRF3-AR(1-547) is the fusion of IRF3 DBD with the AR NTD (1-547). […] The plasmids expressing IRF3-AR(1-547) (A) or wild-type IRF3 (B) or IRF3 DBD (for NT) as well as ISRE-luc and pRL-TK were transiently transfected into PC3 cells. […] Bic, bicalutamide; EPI, EPI-001.

[2] = MTT assay (cytotoxicity), 22Rv1 cells; type: cell-based; details: human, 22Rv1 cells
Outline: as §1

Row | inhibition of DHT-induced AR activation in 22Rv1 cells (PSA-luc) ([1]; 10 nM DHT, 24 h) | activity against wild-type IRF3 (ISRE-luc) (full-length IRF3) | Compound | apoptosis in 22Rv1 cells (22Rv1 cells) | IC50 (DU145 cells) [µM] | apoptosis in LNCaP cells (LNCaP cells) | inhibition of DHT-induced activation of VP16-AR(507-919) (PSA-luc) (VP16-AR(507-919)) | further results
1 | – | – | O=C(Nc1cccc(C(F)(F)F)c1)Nc1ccc([N+](=O)[O-])c(C(F)(F)F)c1 [Compound 442] | induced apoptosis | 1.5 | induced apoptosis | – | –
2 | – | – | N#Cc1ccc(NC(=O)Nc2cccc(C(F)(F)F)c2)cc1C(F)(F)F [Compound 467] | induced apoptosis | 1.6 | induced apoptosis | – | –
3 | – | – | N#Cc1ccc(NC(=O)Nc2cccc(C(F)(F)F)c2)cc1Cl [Compound 492] | – | 5.1 | – | – | –
4 | good activity | inactive | O=C(N/C=C/c1cccc(C(F)(F)F)c1)Nc1ccncn1 [Compound 562] | – | – | – | inactive | –
5 | – | – | O=C(Nc1ccc(Br)nc1)Nc1cc(C(F)(F)F)cc(C(F)(F)F)c1 [Compound 566] | – | – | – | – | IC50 at 72 h ([2]; 72 h, Table 4.1): 1.1 µM
6 | suppressed; also recorded: good activity | inactive | O=C(Nc1cccc(C(F)(F)F)c1)Nc1ccc(NC(=O)c2ccccc2F)c(C(F)(F)F)c1 [Compound 746] | – | – | – | inactive | IC50 at 72 h ([2]; 72 h treatment, Table 6.1): 2.2 µM; inhibition of DHT-induced AR activation in 22Rv1 cells (PSA-luc) ([1]; 1 μM): showed inhibitory activity

Reference: patent US20170273922A1, “UREA AND BIS-UREA BASED COMPOUNDS AND ANALOGUES THEREOF USEFUL IN THE TREATMENT OF ANDROGEN RECEPTOR MEDIATED DISEASES OR DISORDERS” (THE ROYAL INSTITUTION FOR THE ADVACEMENT OF LEARNING/MCGILL …, priority 2014, published 2017)
